molecular target: T1, biotin-tagged CRD4 (carbohydrate-recognition domain 4 of the mannose receptor, CD206) (Homo sapiens, UniProt P22897); assay: solid-phase competition with horseradish peroxidase, CRD4 immobilised on streptavidin plates; type: binding; conditions: not given
T1 construct: gene MRC1; borders from residues reported in crystals
T1 sequence (P22897 646-779): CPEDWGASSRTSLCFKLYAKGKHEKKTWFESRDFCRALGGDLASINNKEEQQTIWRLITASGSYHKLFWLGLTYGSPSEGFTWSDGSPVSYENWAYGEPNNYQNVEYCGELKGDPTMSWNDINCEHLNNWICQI
From the text: solid-phase competition with horseradish peroxidase, CRD4 immobilised on streptavidin plates on biotin-tagged CRD4 (carbohydrate-recognition domain 4 of the mannose receptor, CD206)

| Ki | Compound |
| --- | --- |
| 900 ± 100 µM | CO[C@H]1O[C@H](CO)[C@@H](O)[C@H](O)[C@@H]1O [α-Methyl mannose] |
| 110 ± 20 µM | CO[C@@H]1O[C@@H](C)[C@@H](O)[C@@H](O)[C@@H]1O [αMeFuc] |

same assay, conditions: competitive; 2.5 mM CaCl2, 150 mM NaCl, 25 mM Tris-Cl pH 7.8, 4 °C

| Compound | Ki |
| --- | --- |
| OC[C@H]1O[C@H](O[C@@H]2C(O)O[C@H](CO)[C@@H](O)[C@@H]2O)[C@@H](O)[C@@H](O)[C@@H]1O (some centres unmarked) [Manα1-2Man] | 480 ± 40 µM |
| OC[C@H]1O[C@H](O[C@H]2[C@H](O)[C@@H](CO)OC(O)[C@H]2O)[C@@H](O)[C@@H](O)[C@@H]1O (some centres unmarked) [Manα1-3Man] | 860 ± 50 µM |

Second part, the compound after the results:

| Ki | Compound |
| --- | --- |
| 23 ± 0.4 µM | CC(=O)N[C@H]1[C@H](O[C@H]2[C@H](O)[C@@H](NC(C)=O)C(O)O[C@@H]2CO)O[C@H](CO)[C@@H](O[C@@H]2O[C@H](CO[C@H]3O[C@H](CO[C@H]4O[C@H](CO)[C@@H](O)[C@H](O)[C@@H]4O[C@H]4O[C@H](CO)[C@@H](O)[C@H](O)[C@@H]4O)[C@@H](O)[C@H](O[C@H]4O[C@H](CO)[C@@H](O)[C@H](O)[C@@H]4O[C@H]4O[C@H](CO)[C@@H](O)[C@H](O)[C@@H]4O)[C@@H]3O)[C@@H](O)[C@H](O[C@H]3O[C@H](CO)[C@@H](O)[C@H](O)[C@@H]3O[C@H]3O[C@H](CO)[C@@H](O)[C@H](O)[C@@H]3O[C@H]3O[C@H](CO)[C@@H](O)[C@H](O)[C@@H]3O)[C@@H]2O)[C@@H]1O (some centres unmarked) [Man9] |
| 730 ± 70 µM | OC[C@H]1O[C@H](O[C@H]2[C@H](O)[C@H](O)C(O)O[C@@H]2CO)[C@@H](O)[C@@H](O)[C@@H]1O (some centres unmarked) [Manα1-4Man] |
| 300 ± 80 µM | OC[C@H]1O[C@H](OC[C@H]2OC(O)[C@@H](O)[C@@H](O[C@H]3O[C@H](CO)[C@@H](O)[C@H](O)[C@@H]3O)[C@@H]2O)[C@@H](O)[C@@H](O)[C@@H]1O (some centres unmarked) [Manα1-6(Manα1-3)Man] |
| 380 ± 30 µM | OC[C@H]1O[C@H](OC[C@H]2OC(O)[C@@H](O)[C@@H](O)[C@@H]2O)[C@@H](O)[C@@H](O)[C@@H]1O (some centres unmarked) [Manα1-6Man] |

Source: paper PMC7949135, “Structural analysis of carbohydrate binding by the macrophage mannose receptor CD206” (The Journal of Biological Chemistry, 2021)
